Target: T1, CRBN (Homo sapiens, UniProt Q96SW2)
T1 construct: endogenous in cells; host or cells: Flp-In 293 cells stably expressing BRD4BD2-eGFP-P2A-mCherry
Assay: Cellular CRBN engagement assay (competition with dBET6, BRD4BD2-eGFP reporter)
Assay type: cell-based
Conditions: Flip-In 293 BRD4BD2-eGFP cells, 100 nM dBET6, 5 h
From the text: The cellular CRBN engagement assay measures the cellular binding affinity which is the combination of the compound's cell permeability and their binding affinity to CRBN. This is done by measuring the ability of thalidomide-based degrader molecules to compete with pan-BET bromodomain degrader dBET6 (Nowak et al., Nat. Chem. Biol. 14:706-714 (2018)) for CRBN binding in cells. If no degrader compound is present in the cell, BRD4BRD2-eGFP is degraded by dBET6 via the proteasome system. […]
Cells were seeded at 30-50% confluency in either 24, 48 or 96 well plates (3524, 3548, 3596 respectively, Costar) a day before compound treatment. The inventive compounds were titrated in the presence of 100 nM dBET6 and then were incubated with cells for 5 h following trypsinization and resuspension in DMEM media, transferred into 96-well plates (353910, Falcon®) and analyzed by flow cytometer (Guava® easyCyte™ HT, Millipore®). Signal from at least 3000 events per well was acquired and the eGFP and mCherry florescence monitored. Data was analyzed using FlowJo® (FlowJo®, LCC). Forward and side scatter outliers, frequently associated with cell debris, were removed leaving >90% of total cells, followed by removal of eGFP and mCherry signal outliers, leaving 88-90% of total cells creating the set used for quantification. […]

IC50: 5.37 µM
Compound: CN(C(=O)CCCCCNc1cccc2c1C(=O)N(C1CCC(=O)NC1=O)C2=O)c1ccc(NC(=O)CCCCCCC(=O)NO)cc1 (stereo not shown) [Compound 2, N^1-(4-(6-((2-(2,6-dioxopiperidin-3-yl)-1,3-dioxoisoindolin-4-yl)amino)-N-methylhexanamido)phenyl)-N^8-hydroxyoctanediamide]
